Biological target: T1, Brunfelsia calycina POD (purified 40-kDa anthocyanin degradation-related peroxidase; BcPrx01 suggested)
T1 construct: native POD purified from petals, close to 40 kDa
Test: guaiacol/H2O2 peroxidase activity assay with purified POD, absorbance at […] nm
Assay type: biochemical, Brunfelsia pauciflora var. calycina (Brunfelsia calycina)

`O=C(O[C@@H]1Cc2c(O)cc(O)cc2O[C@@H]1c1ccc(O)c(O)c1)c1cc(O)c(O)c(O)c1` [ECG, epicatechin-3-gallate] showed an IC50 of 21.5 µM.
With `O=C(O[C@@H]1Cc2c(O)cc(O)cc2O[C@H]1c1cc(O)c(O)c(O)c1)c1cc(O)c(O)c(O)c1` [GCG, gallocatechin-3-gallate] the IC50 was 29.7 µM.

Source: article PMC5412285, “Characterization of Active Anthocyanin Degradation in the Petals of Rosa chinensis and Brunfelsia calycina Reveals the Effect of Gallated Catechins on Pigment Maintenance” (International Journal of Molecular Sciences, 2017)
